The record followed here is ChEMBL document CHEMBL3046302, “Antifungal constituents from the seeds of Allium fistulosum L” (J Agric Food Chem, 2002).

Active and inactive are the calls of the source. The rule behind the calls is not given here.

This experiment has as its system Phytophthora capsici. The experiment in a line: Antifungal activity against Phytophthora capsici assessed as fungal growth inhibition at 0.3 to 0.5 mM after 0.5 to 4.5 days. Type of experiment: functional, organism-based.

With `CCCCCCC(O)C(O)/C=C/C(O)CCCCCCC(=O)O` (configuration not stated), the “growth inhibition (GI)” value is “Active”.

`CCCCCCC(O)C(O)/C=C/C(O)CCCCCCC(=O)OCC(O)CO` (configuration not stated): the “growth inhibition (GI)” value was “Active”.
